We go through 36 molecules from US20240174659A1, “COMPOUNDS AND METHODS FOR YAP/TEAD MODULATION AND INDICATIONS THEREFOR” (Opna Bio SA, priority 2021, published 2024).

Molecules are shown by their SMILES.

This assay has as its system TEAD-dependent transcription. Nature of the assay: Inhibitor activity against TEAD-dependent transcription in a cell-based reporter assay (MSTO-211H+12XGTIIC luciferase). The following applies: Homo sapiens; MSTO-211H+12XGTIIC cells, 24 hours incubation, luciferase luminescence normalized to cell viability fluorescence, geometric mean; read-out: MSTO-211H GMean IC50 (uM) Cell Assay Reporter Cell Variant: TEAD. From the text:
Determine Inhibitor Activity Against TEAD-Dependent Transcription in a Cell-Based Reporter Assay
The human mesothelioma cell line MSTO-211H was stably transfected with a pGL4.21 plasmid containing a synthetic promoter with 12 copies of the GTIIC TEAD response element that drives the expression of a luciferase reporter gene^1 using Lipofectamine transfection reagent (Thermo Fisher). Transfected cells were selected using puromycin and single cell clones expressing this construct (referred to as MSTO-211H+12XGTIIC) were generated by limiting dilution. MSTO-211H cells was characterized by genetic alterations in key components of the Hippo pathway^2, resulting in up-regulation of YAP/TEAD-mediated transcription. […] To evaluate TEAD inhibitors, the MSTO-211H+12XGTIIC cell line was seeded in a 96-well plate in 50 μL of culture media at 1×10^4 cells per well and incubated at 37° C. overnight. Serial dilutions of compounds (in total volume of 50 μL of culture media) were added to the cells and incubated at 37° C. for 24 hours. Each plate included cells treated with DMSO as high controls and cells treated with 20 μM of the reference compound K-975 (a known TEAD inhibitor)^3 as low controls. Cell viability was assayed by the addition of 25 μL of CellTiter-Fluor reagent (Promega) followed by a 30-minute incubation at 37° C. and quantification of the fluorescence signal (Ex400/Em505). Subsequently, luciferase expression was assayed by the addition of 25 μL of ONE-Glo reagent (Promega) followed by a 10-minute incubation at room temperature and quantification of the luminescence signal. The luminescence signal was normalized to the fluorescence signal to correct for any loss in cell viability over the 24-hour compound incubation period. The percentage of inhibition of normalized luminescence signal, indicative of compound-mediated inhibition of TEAD-dependent transcription, at individual compound concentrations relative to high and low controls was calculated. The data were analyzed by using nonlinear regression to generate IC50 values for individual compounds.
For orientation: A reporter such as luciferase makes a cellular process visible.
One may read the IC50 as the midpoint of a concentration-inhibition curve. Take `C=CC(=O)N1CCc2ccc(Cc3ccc(C(F)(F)F)c(F)c3)cc2C1` [P-0068, 1-(7-(3-fluoro-4-(trifluoromethyl)benzyl)-3,4-dihydroisoquinolin-2(1H)-yl)prop-2-en-1-one]: the half-inhibitory concentration (IC50) is 0.001 to 0.5 µM.
In the case of `C=CC(=O)N1CCc2cc(F)c(Oc3ccccc3)cc2C1` [P-0030, 1-(6-fluoro-7-phenoxy-3,4-dihydroisoquinolin-2(1H)-yl)prop-2-en-1-one] it was 0.001 to 0.5 µM; in that of `C=CC(=O)N1CCc2ccc(Cc3ccc(F)c(C(F)(F)F)c3)cc2C1` [P-0067, 1-(7-(4-fluoro-3-(trifluoromethyl)benzyl)-3,4-dihydroisoquinolin-2(1H)-yl)prop-2-en-1-one], 0.001 to 0.5 µM; in that of `C=CC(=O)N1CCc2cc(F)c(Oc3cccc(F)c3)cc2C1` [P-0031, 1-(6-fluoro-7-(3-fluorophenoxy)-3,4-dihydroisoquinolin-2(1H)-yl)prop-2-en-1-one], 0.001 to 0.5 µM.
With `C=CC(=O)N1CCc2ccc(O[C@@H]3C[C@@H]4[C@H](C3)C4(F)F)cc2C1` [P-0086, 1-(7-(((1R,3s,5S)-6,6-difluorobicyclo[3.1.0]hexan-3-yl)oxy)-3,4-dihydroisoquinolin-2(1H)-yl)prop-2-en-1-one], the IC50 was 0.001 to 0.5 µM.
On to `C=C(Cl)C(=O)N1CCc2ccc(Oc3ccc(C(F)(F)F)cc3)cc2C1` [P-0124, 2-chloro-1-(7-(4-(trifluoromethyl)phenoxy)-3,4-dihydroisoquinolin-2(1H)-yl)prop-2-en-1-one], for which the concentration for half-maximal inhibition (IC50) fell in the range of 0.001 to 0.5 µM.
Take `C=CC(=O)N1CCc2ccc(Oc3ccc(OC(F)(F)F)cc3)cc2C1` [P-0052, 1-(7-(4-(trifluoromethoxy)phenoxy)-3,4-dihydroisoquinolin-2(1H)-yl)prop-2-en-1-one]: the IC50 was above 20 µM.
`C=CC(=O)N1CCc2ccc(OCC34CCC(CC3)C4)cc2C1` [P-0110, 1-(7-(bicyclo[2.2.1]heptan-1-ylmethoxy)-3,4-dihydroisoquinolin-2(1H)-yl)prop-2-en-1-one]: the IC50 is 0.001 to 0.5 µM.
In the case of `C=CC(=O)N1CCc2ccc(OCc3ccc(F)c(F)c3)cc2C1` [P-0129, 1-(7-((3,4-difluorobenzyl)oxy)-3,4-dihydroisoquinolin-2(1H)-yl)prop-2-en-1-one] it was above 20 µM.
Consider `C=CC(=O)N1CCc2ccc(Oc3cccc(C(F)(F)F)c3)cc2C1` [P-0017, 1-(7-(3-(trifluoromethyl)phenoxy)-3,4-dihydroisoquinolin-2(1H)-yl)prop-2-en-1-one], for which the IC50 is 0.001 to 0.5 µM.
In the case of `O=C(/C=C/CN1CCCC1)N1CCc2ccc(Oc3ccc(C(F)(F)F)cc3)cc2C1` [P-0118, (E)-4-(pyrrolidin-1-yl)-1-(7-(4-(trifluoromethyl)phenoxy)-3,4-dihydroisoquinolin-2(1H)-yl)but-2-en-1-one] it was 0.5 to 20 µM.
In the case of `C=CC(=O)N1CCc2cc(F)c(Oc3ccc(F)cc3)cc2C1` [P-0032, 1-(6-fluoro-7-(4-fluorophenoxy)-3,4-dihydroisoquinolin-2(1H)-yl)prop-2-en-1-one] it was 0.001 to 0.5 µM; in that of `C=CC(=O)N1CCc2ccc(OCc3ccccc3F)cc2C1` [P-0096, 1-(7-((2-fluorobenzyl)oxy)-3,4-dihydroisoquinolin-2(1H)-yl)prop-2-en-1-one], above 20 µM.
In the case of `O=C(/C=C/CN1CCC1)N1CCc2ccc(Oc3ccc(C(F)(F)F)cc3)cc2C1` [P-0117, (E)-4-(azetidin-1-yl)-1-(7-(4-(trifluoromethyl)phenoxy)-3,4-dihydroisoquinolin-2(1H)-yl)but-2-en-1-one] it was 0.5 to 20 µM; in that of `C=CC(=O)N1CCc2ccc(Oc3cc(F)cc(F)c3)cc2C1` [P-0057, 1-(7-(3,5-difluorophenoxy)-3,4-dihydroisoquinolin-2(1H)-yl)prop-2-en-1-one], 0.001 to 0.5 µM; in that of `C=CC(=O)N1CCc2ccc(N(C)c3ccccc3)cc2C1` [P-0026, 1-(7-(methyl(phenyl)amino)-3,4-dihydroisoquinolin-2(1H)-yl)prop-2-en-1-one], 0.001 to 0.5 µM.
Regarding `C=CC(=O)N1CCc2ccc(Nc3ccccc3)cc2C1` [P-0010, 1-(7-(phenylamino)-3,4-dihydroisoquinolin-2(1H)-yl)prop-2-en-1-one], the concentration for half-maximal inhibition (IC50) fell in the range of 0.001 to 0.5 µM.
In the case of `C=CC(=O)N1CCc2ccc(Oc3ccc(F)c(C(F)(F)F)c3)cc2C1` [P-0044, 1-(7-(4-fluoro-3-(trifluoromethyl)phenoxy)-3,4-dihydroisoquinolin-2(1H)-yl)prop-2-en-1-one] it was 0.001 to 0.5 µM; in that of `[2H]C([2H])=C([2H])C(=O)N1CCc2ccc(Oc3ccc(C(F)(F)F)c(F)c3)cc2C1` [P-0049, 1-(7-(3-fluoro-4-(trifluoromethyl)phenoxy)-3,4-dihydroisoquinolin-2(1H)-yl)prop-2-en-1-one-2,3,3-d3], 0.001 to 0.5 µM.
Turning to `C=CC(=O)N1CCc2ccc(Oc3ccc(C(F)(F)F)nc3)cc2C1` [P-0027, 1-(7-((6-(trifluoromethyl)pyridin-3-yl)oxy)-3,4-dihydroisoquinolin-2(1H)-yl)prop-2-en-1-one], the IC50 was 0.001 to 0.5 µM.
In the case of `C=CC(=O)N1CCc2ccc(OCc3ccc(F)cc3)cc2C1` [P-0001, 1-(7-((4-fluorobenzyl)oxy)-3,4-dihydroisoquinolin-2(1H)-yl)prop-2-en-1-one] it was 0.001 to 0.5 µM; in that of `C=CC(=O)N1CCc2cc(F)c(OC3CCC(F)(F)CC3)cc2C1` [P-0102, 1-(7-((4,4-difluorocyclohexyl)oxy)-6-fluoro-3,4-dihydroisoquinolin-2(1H)-yl)prop-2-en-1-one], 0.001 to 0.5 µM; in that of `C=CC(=O)N1CCc2ccc(Nc3ccc(C(F)(F)F)nc3)cc2C1` [P-0012, 1-(7-((6-(trifluoromethyl)pyridin-3-yl)amino)-3,4-dihydroisoquinolin-2(1H)-yl)prop-2-en-1-one], 0.5 to 20 µM.
Regarding `C=CC(=O)N1CCc2ccc(Oc3cccc(F)c3)cc2C1` [P-0006, 1-(7-(3-fluorophenoxy)-3,4-dihydroisoquinolin-2(1H)-yl)prop-2-en-1-one], the IC50 was in the range of 0.001 to 0.5 µM.
In the case of `C=CC(=O)N1CCc2cc(C)c(Oc3ccccc3)cc2C1` [P-0041, 1-(6-methyl-7-phenoxy-3,4-dihydroisoquinolin-2(1H)-yl)prop-2-en-1-one] it was 0.001 to 0.5 µM; in that of `C=CC(=O)N1CCc2ccc(OC3CCC4(CC3)CC4)cc2C1` [P-0077, 1-(7-(spiro[2.5]octan-6-yloxy)-3,4-dihydroisoquinolin-2(1H)-yl)prop-2-en-1-one], 0.001 to 0.5 µM.
In the case of `O=C(/C=C/Cn1ccnc1)N1CCc2ccc(Oc3ccc(C(F)(F)F)cc3)cc2C1` [P-0119, (E)-4-(1H-imidazol-1-yl)-1-(7-(4-(trifluoromethyl)phenoxy)-3,4-dihydroisoquinolin-2(1H)-yl)but-2-en-1-one] it was 0.001 to 0.5 µM; in that of `C=CC(=O)N1CCc2ccc(OCc3ccccc3)cc2C1` [P-0002, 1-(7-(benzyloxy)-3,4-dihydroisoquinolin-2(1H)-yl)prop-2-en-1-one], 0.001 to 0.5 µM; in that of `C=CC(=O)N1CCc2ccc(OC3CC4CCC3C4)cc2C1` (stereo not drawn) [P-0076, 1-(7-(bicyclo[2.2.1]heptan-2-yloxy)-3,4-dihydroisoquinolin-2(1H)-yl)prop-2-en-1-one], 0.001 to 0.5 µM.
Take `C=CC(=O)N1CCc2ccc(OC34CC5CC(CC(C5)C3)C4)cc2C1` [P-0021, 1-(7-(((3R,5R)-adamantan-1-yl)oxy)-3,4-dihydroisoquinolin-2(1H)-yl)prop-2-en-1-one]: the IC50 is 0.001 to 0.5 µM.
In the case of `C=CC(=O)N1CCc2ccc(Oc3ccc(F)c(C4CC4)c3)cc2C1` [P-0048, 1-(7-(3-cyclopropyl-4-fluorophenoxy)-3,4-dihydroisoquinolin-2(1H)-yl)prop-2-en-1-one] it was 0.001 to 0.5 µM.
In the case of `O=C(/C=C/Cl)N1CCc2ccc(Oc3ccc(C(F)(F)F)cc3)cc2C1` [P-0125, (E)-3-chloro-1-(7-(4-(trifluoromethyl)phenoxy)-3,4-dihydroisoquinolin-2(1H)-yl)prop-2-en-1-one] it was 0.001 to 0.5 µM.
Consider `C=CC(=O)N1CCc2ccc(Oc3ccc(F)cc3)cc2C1` [P-0013, 1-(7-(4-fluorophenoxy)-3,4-dihydroisoquinolin-2(1H)-yl)prop-2-en-1-one], for which the IC50 was in the range of 0.001 to 0.5 µM.
In the case of `C=CC(=O)N1CCc2ccc(Oc3ccc(C(F)(F)F)cc3)cc2C1=O` [P-0128, 2-acryloyl-7-(4-(trifluoromethyl)phenoxy)-3,4-dihydroisoquinolin-1(2H)-one] it was 0.001 to 0.5 µM.
In the case of `CN(C)C/C=C/C(=O)N1CCc2ccc(Oc3ccc(C(F)(F)F)cc3)cc2C1` [P-0116, (E)-4-(dimethylamino)-1-(7-(4-(trifluoromethyl)phenoxy)-3,4-dihydroisoquinolin-2(1H)-yl)but-2-en-1-one] it was 0.5 to 20 µM; in that of `C=CC(=O)N1CCc2ccc(Oc3ccc(C4(C)CC4)cc3)cc2C1` [P-0109, 1-(7-(4-(1-methylcyclopropyl)phenoxy)-3,4-dihydroisoquinolin-2(1H)-yl)prop-2-en-1-one], 0.001 to 0.5 µM.
